Results: patent US20120076775A1, “Combination of HGF Inhibitor and EGF Inhibitor to Treat Cancer” (priority 2008, published 2012)

Experiments:
U87EGFRvIII xenografts = assay: U87EGFRvIII s.c. xenograft, tumor growth; assay type: in vivo; settings: s.c. U87EGFRvIII in immunodeficient mice; mAbs i.p. 5 mg/kg days 8, 12, 15; erlotinib 150 mg/kg 6 times per week
Method: Illustrative but not limiting examples of immunodeficient strains of mice that can be used are nude mice such as CD-1 nude, Nu/Nu, Balb/c nude, NIH-III (NIH-bg-nu-xid BR); scid mice such as Fox Chase SCID (C.B-17 SCID), Fox Chase outbred SCID and SCID Beige; mice deficient in RAG enzyme; as well as nude rats. Experiments are carried out as described previously (Kim et al., Nature 362:841, 1992, which is incorporated herein by reference). Human tumor cells typically grown in complete DMEM medium are typically harvested in HBSS. Female immunodeficient, e.g., athymic nude mice (4-6 wks old) are injected s.c. with typically 5×10^6 cells in 0.2 ml of HBSS in the dorsal areas. When the tumor size reaches 50-100 mm^3, the mice are grouped randomly and appropriate amounts of the agents are administered. […] Tumor sizes are determined typically twice a week by measuring in two dimensions [length (a) and width (b)]. Tumor volume is calculated according to V=ab^2/2 and expressed as mean tumor volume±SEM. […] The effect of the agents may measured by growth of the tumor with time, prolongation of the survival of the mice, or increase in percent of the mice surviving at a given time or indefinitely. […]

[1] = test system: U87EGFRvIII intracranial xenografts; assay: U87EGFRvIII intracranial xenograft, survival; assay type: in vivo, mice; settings: treated day 5 to 21, 5 mg/kg mAb twice per week, 150 mg erlotinib 6 times per week
Method: In this experiment, mice were implanted intracranially with U87EGFRvIII cells as described (Kim et al, op. cit.) in order to more accurately simulate brain tumors. Four groups of mice were treated with control mAb 5G8 or anti-HGF mAb L27, either alone or in combination with erlotinib, from post-implantation day 5 to 21 (5 mg/kg mAb twice per week; 150 mg erlotinib 6 times per week).

cMet receptor = cMet receptor (Homo sapiens, UniProt P08581); settings: literature; read-out: Kd, high affinity binding site for cMet receptor; cited from earlier work
[2] = target: heparin sulfate proteoglycans (HSPG); settings: literature; read-out: Kd, low affinity binding site for HSPG; cited from earlier work
[3] = test system: GB-d1 gallbladder tumor xenografts; assay: GB-d1 gallbladder tumor s.c. xenograft, tumor growth; assay type: in vivo; settings: NIH III xid/Beige/nude mice, mAbs 100 μg (approx. 5 mg/kg) twice per week from day 13
Method: Human tumor cells typically grown in complete DMEM medium are typically harvested in HBSS. Female immunodeficient, e.g., athymic nude mice (4-6 wks old) are injected s.c. with typically 5×10^6 cells in 0.2 ml of HBSS in the dorsal areas. When the tumor size reaches 50-100 mm^3, the mice are grouped randomly and appropriate amounts of the agents are administered. […] Tumor sizes are determined typically twice a week by measuring in two dimensions [length (a) and width (b)]. Tumor volume is calculated according to V=ab^2/2 and expressed as mean tumor volume±SEM. The number of mice in each treatment group is at least 3, but more often between 5 and 10, e.g., 7. One group of mice is treated with both agents; other groups may be treated with neither agent or with one agent but not the other agent. […] Statistical analysis may be performed using, e.g., Student's t test.
For example, such an experiment was performed with GB-d1 gallbladder tumor xenografts. Female NIH III xid/Beige/nude mice (4-6 wks old) were implanted with tumors by s.c. injection of 10^6 GB-d1 cells in the dorsal areas. When the tumor size reached ˜100 mm^3, the mice were grouped randomly into 4 groups of 5 mice each. […] The mAbs were administered twice per week at 100 μg (approx. 5 mg/kg body weight) from day 13. Tumor sizes were determined twice per week as described above.

cMet receptor, sequence (P08581 25-1390): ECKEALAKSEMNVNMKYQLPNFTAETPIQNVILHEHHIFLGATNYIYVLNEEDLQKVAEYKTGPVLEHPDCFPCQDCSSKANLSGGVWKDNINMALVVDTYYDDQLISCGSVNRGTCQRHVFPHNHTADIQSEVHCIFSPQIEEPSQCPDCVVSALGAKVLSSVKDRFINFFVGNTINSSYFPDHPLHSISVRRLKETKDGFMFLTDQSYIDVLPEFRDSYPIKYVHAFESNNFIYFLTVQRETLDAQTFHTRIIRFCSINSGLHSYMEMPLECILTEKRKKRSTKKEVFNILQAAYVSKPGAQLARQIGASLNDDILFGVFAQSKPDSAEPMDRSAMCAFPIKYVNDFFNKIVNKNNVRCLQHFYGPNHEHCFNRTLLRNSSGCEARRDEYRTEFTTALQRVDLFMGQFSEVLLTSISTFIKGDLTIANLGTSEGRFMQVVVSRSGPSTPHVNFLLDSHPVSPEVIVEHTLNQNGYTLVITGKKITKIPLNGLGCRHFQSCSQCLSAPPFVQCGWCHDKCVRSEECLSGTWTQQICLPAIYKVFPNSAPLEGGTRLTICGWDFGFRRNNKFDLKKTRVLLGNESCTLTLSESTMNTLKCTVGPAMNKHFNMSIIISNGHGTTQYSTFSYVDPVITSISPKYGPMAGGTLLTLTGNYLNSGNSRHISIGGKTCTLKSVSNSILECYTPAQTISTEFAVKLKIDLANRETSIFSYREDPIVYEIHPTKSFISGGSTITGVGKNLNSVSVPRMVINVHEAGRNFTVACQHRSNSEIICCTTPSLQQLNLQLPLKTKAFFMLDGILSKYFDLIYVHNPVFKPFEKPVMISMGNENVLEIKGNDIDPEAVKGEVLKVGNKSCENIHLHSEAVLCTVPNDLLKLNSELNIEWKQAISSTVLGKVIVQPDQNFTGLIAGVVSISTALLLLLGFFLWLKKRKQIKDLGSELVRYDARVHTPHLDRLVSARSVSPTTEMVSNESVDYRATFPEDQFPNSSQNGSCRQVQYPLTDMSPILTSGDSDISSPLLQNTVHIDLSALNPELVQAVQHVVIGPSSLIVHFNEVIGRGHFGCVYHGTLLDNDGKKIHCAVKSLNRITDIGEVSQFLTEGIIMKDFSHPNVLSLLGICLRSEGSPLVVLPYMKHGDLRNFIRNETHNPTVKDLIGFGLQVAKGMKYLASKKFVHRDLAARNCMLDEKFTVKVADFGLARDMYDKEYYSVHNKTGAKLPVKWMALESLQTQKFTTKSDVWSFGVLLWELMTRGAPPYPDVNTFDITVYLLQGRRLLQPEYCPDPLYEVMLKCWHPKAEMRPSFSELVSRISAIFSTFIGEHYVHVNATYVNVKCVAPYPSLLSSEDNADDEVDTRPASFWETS

C#Cc1cccc(Nc2ncnc3cc(OCCOC)c(OCCOC)cc23)c1 [erlotinib, N-(3-ethynylphenyl)-6,7-bis(2-methoxyethoxy)-4-quinazolinamine]
inhibition of growth of xenografts (FIG. 2) (U87EGFRvIII xenografts): only modestly inhibited growth of the tumors
prolongation of survival (FIG. 3) [1]: slightly but significantly prolonged survival

HGF: 102 kDa heterodimeric polypeptide growth factor, ligand of cMet
Kd (cMet receptor): 200 pM
Kd [2]: 1000 pM

HuL2G7: humanized L2G7 anti-HGF mAb; heavy and light chains SEQ ID NO:1 and 2
inhibition of tumor growth (FIG. 1) [3]: partially inhibited tumor growth
